In patent US20240374585A1, “EPITHELIAL SODIUM CHANNEL (ENAC) INHIBITOR CONJUGATES AND METHODS FOR USE THEREOF” (Lung Therapeutics, Inc., priority 2021, published 2024) one finds IC50 data, which are given here for two molecules.

Where two headings read alike, the source gives them in different places.

For the assay, the target named is T1, ENaC (Homo sapiens, UniProt P37088+P51168+P51170).
T1 construct: Primary NHBE cells were isolated from bronchi of normal healthy patients; endogenous in cells; host or cells: primary normal human bronchial epithelial (NHBE) cells, differentiated at air-liquid interface
T1 sequence (P37088 1-669): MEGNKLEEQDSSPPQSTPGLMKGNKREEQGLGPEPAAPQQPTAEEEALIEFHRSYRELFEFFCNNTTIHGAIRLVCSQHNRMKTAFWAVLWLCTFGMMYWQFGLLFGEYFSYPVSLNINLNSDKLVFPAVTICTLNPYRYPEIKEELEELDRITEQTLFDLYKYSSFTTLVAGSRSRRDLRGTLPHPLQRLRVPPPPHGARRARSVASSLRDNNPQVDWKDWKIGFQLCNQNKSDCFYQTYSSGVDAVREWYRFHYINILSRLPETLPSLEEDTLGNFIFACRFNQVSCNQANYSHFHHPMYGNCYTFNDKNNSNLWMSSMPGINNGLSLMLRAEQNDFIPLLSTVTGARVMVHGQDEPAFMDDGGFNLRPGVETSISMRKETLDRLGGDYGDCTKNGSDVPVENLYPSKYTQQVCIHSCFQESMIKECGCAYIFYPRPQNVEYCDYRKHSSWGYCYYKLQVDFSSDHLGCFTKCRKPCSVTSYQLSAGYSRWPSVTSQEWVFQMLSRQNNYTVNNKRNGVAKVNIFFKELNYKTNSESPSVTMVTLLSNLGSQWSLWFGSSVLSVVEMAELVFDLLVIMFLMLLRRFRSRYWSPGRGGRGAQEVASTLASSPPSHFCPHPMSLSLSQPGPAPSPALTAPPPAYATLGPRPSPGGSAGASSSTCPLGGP
T1 sequence (P51168 1-640): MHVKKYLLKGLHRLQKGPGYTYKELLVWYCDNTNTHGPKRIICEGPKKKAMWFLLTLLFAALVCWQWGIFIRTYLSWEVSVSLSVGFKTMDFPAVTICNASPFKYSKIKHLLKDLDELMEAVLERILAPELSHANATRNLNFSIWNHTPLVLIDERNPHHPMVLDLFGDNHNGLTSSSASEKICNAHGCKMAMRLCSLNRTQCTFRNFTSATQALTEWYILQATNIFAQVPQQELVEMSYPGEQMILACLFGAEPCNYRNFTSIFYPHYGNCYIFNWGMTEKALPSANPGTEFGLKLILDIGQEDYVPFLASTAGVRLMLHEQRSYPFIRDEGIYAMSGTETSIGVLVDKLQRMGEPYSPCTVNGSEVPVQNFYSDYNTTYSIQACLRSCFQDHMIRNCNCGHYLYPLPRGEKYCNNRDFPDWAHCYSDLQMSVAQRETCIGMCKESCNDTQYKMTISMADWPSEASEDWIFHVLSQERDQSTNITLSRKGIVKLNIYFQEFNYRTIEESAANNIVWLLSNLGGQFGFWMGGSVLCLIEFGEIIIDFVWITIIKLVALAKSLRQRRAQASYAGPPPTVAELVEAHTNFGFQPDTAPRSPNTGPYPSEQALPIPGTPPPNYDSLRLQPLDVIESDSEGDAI
T1 sequence (P51170 1-649): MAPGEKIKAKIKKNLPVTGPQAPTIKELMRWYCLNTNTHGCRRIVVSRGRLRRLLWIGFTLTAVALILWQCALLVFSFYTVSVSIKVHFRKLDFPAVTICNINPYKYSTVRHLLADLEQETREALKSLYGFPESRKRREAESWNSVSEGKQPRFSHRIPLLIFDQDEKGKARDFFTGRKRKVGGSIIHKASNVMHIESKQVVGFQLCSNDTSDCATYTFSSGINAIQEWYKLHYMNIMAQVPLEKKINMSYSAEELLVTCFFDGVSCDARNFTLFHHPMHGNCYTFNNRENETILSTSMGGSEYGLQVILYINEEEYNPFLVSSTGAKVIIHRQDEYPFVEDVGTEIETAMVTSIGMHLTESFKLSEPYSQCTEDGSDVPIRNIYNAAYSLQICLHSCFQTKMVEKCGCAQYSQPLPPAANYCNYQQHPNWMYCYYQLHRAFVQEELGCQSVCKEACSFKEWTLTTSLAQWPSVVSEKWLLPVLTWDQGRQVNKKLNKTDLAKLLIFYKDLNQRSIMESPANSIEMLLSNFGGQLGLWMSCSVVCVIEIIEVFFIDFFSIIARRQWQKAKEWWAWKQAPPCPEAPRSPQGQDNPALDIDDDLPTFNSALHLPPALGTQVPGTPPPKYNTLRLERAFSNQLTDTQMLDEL
Nature of the assay: ENaC inhibition in NHBE cell monolayers, Ussing epithelial voltage clamp (short circuit current). The assay is classed as cell-based. Here is the method:
The objective of this study was to measure the ability of the illustrative conjugates to modulate ion transport function of ENAC in normal human bronchial epithelial (NHBE) cell monolayers. Sodium transport function of ENAC expressed in NHBE monolayers was evaluated using an Ussing epithelial voltage clamp apparatus. See, Hirsh et al., J. Pharmacol. Exp. Ther. 2008; 325:77-88, hereby incorporated by reference in its entirety.
Primary NHBE cells were isolated from bronchi of normal healthy patients, expanded in Lonza media (BEGM™ BulletKit™), and plated on Snapwell™ filters to form an epithelium. Cells on Snapwell™ inserts were grown for at least 21 days in Vertex Differentiation media and exposed to an air-liquid interface to promote differentiation. At least one day before the assay, mucous overlaying the apical surface was removed from the inserts by incubating the apical surface for about 30 minutes with ≥200 μL of differentiation media followed by aspiration of the mucous film and media.
The NHBE cell monolayers grown on Snapwell™ filter inserts were transferred to Physiologic Instruments Ussing recording chambers (Physiologic Instruments, Inc., San Diego, CA) and superfused with HB-PS. One or more 6-channel or 8-channel Physiologic Instruments VCC MC6 or VCC MC8 epithelial voltage clamps were used in combination to record short circuit current (ISC) from up to 24 inserts simultaneously. Air was used to operate the bubble lifts to rapidly circulate solutions in each Ussing chamber half and to aerate the monolayers.
Inserts were voltage clamped at 0 m V to record the ISC. Bumetanide (20 μM) was added to the basolateral side of all inserts. Test conjugates prepared as DMSO (Sigma-Aldrich) stocks were added cumulatively and sequentially to the apical Ussing chamber halves with at least 3 minutes between each addition.
Time and volume matched additions of DMSO to the basolateral side of the test conjugate treated inserts and both sides of the vehicle treated inserts was made to maintain osmotic balance across the epithelia. Transepithelial resistance was monitored with small voltage steps. The assay was performed at 35±2° C.
ENaC current at each test conjugate concentration was calculated as the peak current change produced by each test conjugate treated insert minus the mean current change produced by the corresponding DMSO additions to time-matched vehicle controls inserts. Cumulative difference data was fit to a Hill equation of the form: […]
Where IEnaC is the ISC peak difference current measured at each test conjugate concentration [Test].

Regarding `CC(=O)N[C@@H](Cc1cn(CCCCNC(N)=NC(=O)c2nc(Cl)c(N)nc2N)nn1)C(=O)NCCCCCC(=O)N[C@@H](C)C(=O)N[C@@H](CO)C(=O)N[C@@H](Cc1c[nH]cn1)C(=O)N[C@@H](CC(C)C)C(=O)N[C@@H](CCCNC(=N)N)C(=O)N[C@@H](CCCCN)C(=O)N[C@@H](CC(C)C)C(=O)N[C@@H](CCCNC(=N)N)C(=O)N[C@@H](CCCCN)C(=O)N[C@@H](CCCNC(=N)N)C(=O)N[C@@H](CC(C)C)C(=O)N[C@@H](CC(C)C)C(N)=O` [Conjugate 8], the IC50 came to 60 nM. As for `CC(=O)N[C@@H](Cc1cn(CCCCNC(N)=NC(=O)c2nc(Cl)c(N)nc2N)nn1)C(=O)NCCCCCC(=O)N[C@H](C(=O)N[C@@H](CO)C(=O)N[C@@H](CCCCN)C(=O)N[C@@H](CCCNC(=N)N)C(=O)N[C@@H](CCCNC(=N)N)C(N)=O)C(C)C` [Conjugate 9, Ac-(AmilCC2-Pgy)-Ahx-VSKRR-NH2], the half-maximal inhibitory concentration (IC50) (NHBE cell monolayers, Ussing chamber, apical addition, 35±2° C., read-out: IC50 for the ENaC inhibition) was 100 nM.
